These results are taken from patent US20060069110A1, “Substituted heterocyclic compounds and methods of use” (priority 2004, published 2006).

Each structure is given as a SMILES string.

As usually defined, the IC50 is the concentration that gives 50% inhibition.

In the experiment the test system is THP1 cells (LPS induced TNF release). In words: Lipopolysaccharide-Activated THP1 Cell TNF Production Assay. Particulars: Homo sapiens, THP-1; THP1 cells, bacterial LPS, secreted TNF-α after 3 h at 37° C.; read-out: IC50 values in the THP1 cell assay (LPS induced TNF release). The class given is cell-based. How it is done:
Lipopolysaccharide-Activated THP1 Cell TNF Production Assay
THP1 cells are resuspended in fresh THP1 media (RPMI 1640, 10% heat-inactivated FBS, 1×PGS, 1×NEAA, plus 30 μM βME) at a concentration of 1E6/mL. One hundred microliters of cells per well are plated in a polystyrene 96-well tissue culture. One microgram per mL of bacterial LPS is prepared in THP1 media and is transferred to the wells. Test compounds are dissolved in 100% DMSO and are serially diluted 3 fold in a polypropylene 96-well microtiter plate (drug plate). HI control and LO control wells contain only DMSO. One microliter of test compound from the drug plate followed by 10 μL of LPS are transferred to the cell plate. The treated cells are induced to synthesize and secrete TNF-α at 37° C. for 3 h. Forty microliters of conditioned media are transferred to a 96-well polypropylene plate containing 110 μL of ECL buffer (50 mM Tris-HCl pH 8.0, 100 mM NaCl, 0.05% Tween 20, 0.05% NaN3 and 1% FBS) supplemented with 0.44 nM MAB610 monoclonal Ab (R&D Systems), 0.34 nM ruthenylated AF210NA polyclonal Ab (R&D Systems) and 44 μg/mL sheep anti-mouse M280 Dynabeads (Dynal). After a 2 h incubation at RT with shaking, the reaction is read on the ECL M8 Instrument (IGEN Inc.). A low voltage is applied to the ruthenylated TNF-α immune complexes, which in the presence of TPA (the active component in Origlo), results in a cyclical redox reaction generating light at […]. The amount of secreted TNF-α in the presence of compound compared with that in the presence of DMSO vehicle alone (HI control) is calculated using the formula: % control (POC)=(cpd−average LO)/(average HI−average LO)*100. Data (consisting of POC and inhibitor concentration in μM) is fitted to a 4-parameter equation (y=A+((B−A)/(1+((×/C)ôD))), where A is the minimum y (POC) value, B is the maximum y (POC), C is the x (cpd concentration) at the point of inflection and D is the slope factor) using a Levenburg-Marquardt non-linear regression algorithm.
Regarding `C[C@@H](Cc1cccc(CNC(=O)OC(C)(C)C)c1)Nc1nccc(N(C)c2cc(-c3ccccc3)c(=O)n(C)c2)n1` [(S)-tert-Butyl-3-(2-(4-(methyl(1-methyl-6-oxo-5-phenyl-1,6-dihydro-pyridin-3-yl)amino)pyrimidin-2-ylamino)propyl)benzylcarbamate], the IC50 was no more than 20 µM.

`C[C@H](N)C(=O)N1CCC(Nc2nccc(N(C)c3ccnc(-c4ccccc4)n3)n2)CC1` [Example 23]: the IC50 is no more than 20 µM.

Consider `CNC(=O)c1cnc(-c2ccccc2)nc1Nc1ccnc(N[C@@H](C)Cc2cccc(CN)c2)n1` [(S)-4-(2-(1-(3-(aminomethyl)phenyl)-propan-2-ylamino)pyrimidin-4-ylamino)-N-methyl-2-phenylpyrimidine-5-carboxamide], for which the IC50 is no more than 20 µM.

Consider `CN(c1ccnc(NCCc2cccnc2)n1)c1ccnc(-c2ccc(F)cc2F)n1` [Example 77, N^4-(2-(2,4-Difluorophenyl)pyrimidin-4-yl)-N^4-methyl-N^2-(2-(pyridin-3-yl)ethyl)-pyrimidine-2,4-diamine], for which the concentration for half-maximal inhibition (IC50) is no more than 20 µM.

As for `CN(c1ccnc(N[C@@H](CO)Cc2ccccc2)n1)c1ccnc(-c2ccccc2)n1` [(2R)-2-((4-(methyl(2-phenyl-4-pyrimidinyl)amino)-2-pyrimidinyl)amino)-3-phenyl-1-propanol], the IC50 is no more than 20 µM.

Turning to `C[C@H](Nc1nccc(N(C)c2ccnc(-c3ccccc3)n2)n1)[C@@H]1CCC[C@H](CCN)C1` [Example 10, N^2-((S)-((1R,3S)-3-(2-Aminoethyl)cyclohexyl)ethyl)-N^4-methyl-N^4-(2-phenylpyrimidin-4-yl)pyrimidine-2,4-diamine], the IC50 was no more than 20 µM.

For `CC(Cc1cccc(CN)c1)Nc1nccc(N(C)c2cc(N)nc(-c3ccccc3)n2)n1` (stereo not shown) [Example 181, N^4-(2-(1-(3-(Aminomethyl)phenyl)propan-2-ylamino)pyrimidine-4-yl)-N^4-methyl-2-phenylpyrimidine-4,6-diamine], the 50% inhibitory concentration (IC50) was no more than 20 µM.

On to `CN(c1cc(-c2ccccc2)c(=O)n(C)c1)c1ccnc(NCCc2ccccc2)n1` [Example 176, 1-Methyl-5-(methyl(2-(phenethylamino)pyrimidin-4-yl)amino)-3-phenylpyridin-2(1H)-one], for which the IC50 was no more than 20 µM.

Consider `CN(c1cccc(Cc2ccccc2)n1)c1ccnc(NCCc2ccccc2)n1` [Example 151, N^4-(6-Benzylpyridin-2-yl)-N^4-methyl-N^2-phenethylpyrimidine-2,4-diamine], for which the half-maximal inhibitory concentration (IC50) was no more than 20 µM.

For the molecule `Cc1cc(N(C)c2ccnc(-c3ccccc3)n2)nc(NC2CCC(N)CC2)n1` (stereo not shown) [Example 33, N2-((1r,4r)-4-Aminocyclohexyl)-N4,6-dimethyl-N4-(2-phenylpyrimidin-4-yl)pyrimidine-2,4-diamine], the IC50 is no more than 20 µM.

Turning to `CN(c1ccnc(NCCc2cccnc2)n1)c1ccnc(-c2cccs2)n1` [Example 79, N^4-Methyl-N^2-(2-(pyridin-3-yl)ethyl)-N^4-(2-(thiophen-2-yl)pyrimidin-4-yl)-pyrimidine-2,4-diamine], the IC50 was no more than 20 µM.

Turning to `CNC(=O)[C@@H](Cc1ccccc1)Nc1nccc(N(C)c2ccnc(-c3ccccc3)n2)n1` [Example 46, (R)-N-Methyl-2-(4-(methyl(2-phenylpyrimidin-4-yl)amino)pyrimidin-2-ylamino)-3-phenylpropanamide], the IC50 was no more than 20 µM.

As to `CN(c1cccc(-c2cccc(C(F)(F)F)c2)n1)c1ccnc(NCCc2ccccc2)n1` [Example 129, N^4-Methyl-N^2-phenethyl-N^4-(6-(3-(trifluoromethyl)phenyl)pyridin-2-yl)-pyrimidine-2,4-diamine], the IC50 is no more than 20 µM.

For the molecule `C[C@H](Nc1nccc(N(C)c2ccnc(-c3ccccc3)n2)n1)c1cccc(CCC(=O)O)c1` [Example 18, (S)-3-(3-(1-(4-(Methyl(2-phenylpyrimidin-4-yl)amino)pyrimidin-2-ylamino)-ethyl)phenyl)propanoic acid], the half-inhibitory concentration (IC50) is no more than 20 µM.

Consider `CN(c1ccnc(NC2CCNCC2)n1)c1ccnc(-c2ccccc2)n1` [Example 16, N^4-Methyl-N^4-(2-phenylpyrimidin-4-yl)-N^2-(piperidin-4-yl)pyrimidine-2,4-diamine], for which the IC50 is no more than 20 µM.

`CN(c1ccnc(NCCc2ccccc2Cl)n1)c1nccc(-c2ccccc2)n1` [Example 185, N^2-(2-Chlorophenethyl)-N^4-methyl-N^4-(4-phenylpyrimidin-2-yl)pyrimidine-2,4-diamine]: the IC50 is no more than 20 µM.

Turning to `COc1nc(-c2ccccc2)nc(N(C)c2ccnc(N[C@@H](C)Cc3cccc([C@@H](C)N)c3)n2)n1` [Example 126, N^2-((S)-1-(3-((R)-1-Aminoethyl)phenyl)propan-2-yl)-N^4-(4-methoxy-6-phenyl-1,3,5-triazin-2-yl)-N^4-methylpyrimidine-2,4-diamine], the 50% inhibitory concentration (IC50) was no more than 20 µM.

Regarding `C[C@H](Nc1nccc(N(C)c2ccnc(-c3ccccc3)n2)n1)c1cccc(CCN)c1` [Example 19, (S)-N^2-(1-(3-(2-Aminoethyl)phenyl)ethyl)-N^4-methyl-N^4-(2-phenylpyrimidin-4-yl)pyrimidine-2,4-diamine], the half-inhibitory concentration (IC50) was no more than 20 µM.

With `Cn1c(Nc2ccnc(NCCc3ccccc3Cl)n2)cc(-c2ccccc2)cc1=O` [Example 160, 6-(2-(2-Chlorophenethylamino)pyrimidin-4-ylamino)-1-methyl-4-phenylpyridin-2(1H)-one], the IC50 is no more than 20 µM.

Take `CN(c1cccc(-c2ccc(C(F)(F)F)cc2)n1)c1ccnc(NCCc2ccccc2)n1` [Example 128, N^4-Methyl-N^2-phenethyl-N^4-(6-(4-(trifluoromethyl)phenyl)pyridin-2-yl)-pyrimidine-2,4-diamine]: the IC50 is no more than 20 µM.

Consider `CN(c1cccc(-c2ccccc2)n1)c1ccnc(N[C@H]2CC[C@H](N)CC2)n1` [Example 153, N^2-((1s,4s)-4-aminocyclohexyl)-N^4-methyl-N^4-(6-phenylpyridin-2-yl)pyrimidine-2,4-diamine], for which the IC50 is no more than 20 µM.

Consider `C[C@@H](Cc1cccc(CN)c1)Nc1nccc(N(C)c2ccnc(-c3cccc(F)c3)n2)n1` [Example 85, N^2-((S)-1-(3-(Aminomethyl)phenyl)propan-2-yl)-N^4-(2-(3-fluorophenyl)pyrimidin-4-yl)-N^4-methylpyrimidine-2,4-diamine], for which the IC50 was no more than 20 µM.

For the molecule `CN(c1ccnc(NCCc2cccc(-c3ccccn3)c2)n1)c1ccnc(-c2ccccc2)n1` [Example 118, N^2-(3-(Pyridin-2-yl)phenethyl)-N^4-methyl-N^4-(2-phenylpyrimidin-4-yl)pyrimidine-2,4-diamine], the IC50 was no more than 20 µM.

For `CN(c1cccc(-c2ccco2)n1)c1ccnc(NCCc2ccccc2)n1` [Example 149, N^4-(6-(Furan-2-yl)pyridin-2-yl)-N^4-methyl-N^2-phenethylpyrimidine-2,4-diamine], the IC50 was no more than 20 µM.

For `CN(c1ccnc(NCCc2cccnc2)n1)c1ccnc(-c2ccc(F)cc2)n1` [Example 73, N^4-(2-(4-Fluorophenyl)pyrimidin-4-yl)-N^4-methyl-N^2-(2-(pyridin-3-yl)ethyl)-pyrimidine-2,4-diamine], the IC50 was no more than 20 µM.

Consider `C[C@@H](Cc1cccc(CN)c1)Nc1nccc(N(C)c2c[nH]c(=O)c(-c3ccccc3)c2)n1` [Example 168, (S)-5-((2-(1-(3-(Aminomethyl)phenyl)propan-2-ylamino)pyrimidin-4-yl)(methyl)-amino)-3-phenylpyridin-2(1H)-one], for which the concentration for half-maximal inhibition (IC50) was no more than 20 µM.

On to `C[C@@H](Cc1cccc(CN)c1)Nc1nccc(N(C)c2nc(-c3ccccc3)ncc2F)n1` [Example 66, (S)-N^2-(1-(3-(Aminomethyl)phenyl)propan-2-yl)-N^4-(5-fluoro-2-phenylpyrimidin-4-yl)-N^4-methylpyrimidine-2,4-diamine], for which the IC50 is no more than 20 µM.

For the molecule `CN(c1cccc(C2=CCCCC2)n1)c1ccnc(NCCc2ccccc2)n1` [Example 148, N^4-(6-cyclohexenylpyridin-2-yl)-N^4-methyl-N^2-phenethylpyrimidine-2,4-diamine], the half-maximal inhibitory concentration (IC50) is no more than 20 µM.

For the molecule `COc1ccccc1-c1cccc(N(C)c2ccnc(NCCc3ccccc3)n2)n1` [Example 142, N^4-(6-(2-Methoxyphenyl)pyridin-2-yl)-N^4-methyl-N^2-phenethylpyrimidine-2,4-diamine], the 50% inhibitory concentration (IC50) was no more than 20 µM.

On to `CNC(=O)NCc1cccc(C[C@H](C)Nc2nccc(Nc3nc(-c4ccccc4)ncc3C(=O)NC)n2)c1` [(S)-1-(3-(2-(4-(5-(Methylcarbamoyl)-2-phenylpyrimidin-4-ylamino)pyrimidin-2-ylamino)propyl)benzyl)-3-methylurea], for which the half-maximal inhibitory concentration (IC50) is no more than 20 µM.

As for `CN(c1ccnc(NCC(O)c2ccccn2)n1)c1ccnc(-c2ccccc2)n1` (stereo not shown) [Example 113], the half-inhibitory concentration (IC50) is no more than 20 µM.
